In PubChem BioAssay (NCI):
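Interpolation was linear, between the two tested concentrations surrounding the appropriate level; five concentrations were tested over 48 hours in 96-well plates. At the GI50, growth is halved. TGI is the concentration that stops growth completely.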

Experiments:
Test in all cases: DTP human tumour cell line panel, 48 h
SK-MEL-5 melanoma = test system: SK-MEL-5 melanoma
DU-145 prostate = test system: DU-145 prostate
LOX IMVI melanoma = test system: LOX IMVI melanoma
KM12 colon = test system: KM12 colon
IGROV1 ovarian = test system: IGROV1 ovarian
OVCAR-4 ovarian = test system: OVCAR-4 ovarian
OVCAR-3 ovarian = test system: OVCAR-3 ovarian
HOP-62 NSCLC = test system: HOP-62 NSCLC
U251 CNS = test system: U251 CNS
HCT-15 colon = test system: HCT-15 colon
HS 578T breast = test system: HS 578T breast
OVCAR-8 ovarian = test system: OVCAR-8 ovarian
MDA-MB-231 breast = test system: MDA-MB-231 breast
NCI-H460 lung = test system: NCI-H460 lung
OVCAR-5 ovarian = test system: OVCAR-5 ovarian
HCT-116 colon = test system: HCT-116 colon
UO-31 renal = test system: UO-31 renal
A498 renal = test system: A498 renal
MDA-MB-435 = test system: MDA-MB-435
MOLT-4 leukemia = test system: MOLT-4 leukemia
SW-620 colon = test system: SW-620 colon
786-0 renal = test system: 786-0 renal
CCRF-CEM leukemia = test system: CCRF-CEM leukemia
SK-MEL-28 melanoma = test system: SK-MEL-28 melanoma
PC-3 prostate = test system: PC-3 prostate
HOP-92 NSCLC = test system: HOP-92 NSCLC
T-47D breast = test system: T-47D breast
RXF 393 renal = test system: RXF 393 renal
UACC-62 melanoma = test system: UACC-62 melanoma
EKVX NSCLC = test system: EKVX NSCLC
UACC-257 melanoma = test system: UACC-257 melanoma
MALME-3M melanoma = test system: MALME-3M melanoma
SF-539 CNS = test system: SF-539 CNS
NCI-H522 lung = test system: NCI-H522 lung
COLO 205 colon = test system: COLO 205 colon
SR leukemia = test system: SR leukemia
TK-10 renal = test system: TK-10 renal
SNB-19 CNS = test system: SNB-19 CNS
SF-268 CNS = test system: SF-268 CNS
HCC-2998 colon = test system: HCC-2998 colon
NCI/ADR-RES ovarian = test system: NCI/ADR-RES ovarian
NCI-H23 lung = test system: NCI-H23 lung
M14 melanoma = test system: M14 melanoma
CAKI-1 renal = test system: CAKI-1 renal
SN12C renal = test system: SN12C renal
HL-60(TB) leukemia = test system: HL-60(TB) leukemia
BT-549 breast = test system: BT-549 breast
ACHN renal = test system: ACHN renal
MDA-MB-468 breast = test system: MDA-MB-468 breast
A549 NSCLC = test system: A549 NSCLC
SF-295 CNS = test system: SF-295 CNS
MCF7 breast = test system: MCF7 breast
NCI-H226 lung = test system: NCI-H226 lung
RPMI-8226 leukemia = test system: RPMI-8226 leukemia
HT29 colon = test system: HT29 colon
SK-MEL-2 melanoma = test system: SK-MEL-2 melanoma
K-562 leukemia = test system: K-562 leukemia
SNB-75 CNS = test system: SNB-75 CNS
SK-OV-3 ovarian = test system: SK-OV-3 ovarian

Compound CC1(C)CC[C@]2(C(=O)O)CC[C@]3(C)C(=CCC4[C@@]5(C)C[C@@H](O)[C@@H]6OC(c7ccccc7Br)OC[C@@]6(C)C5CC[C@]43C)C2C1 (stereo partly drawn) has a GI50 (SK-MEL-5 melanoma) of 3.6 µM, a TGI (SK-MEL-5 melanoma) of 13.9 µM and a GI50 (DU-145 prostate) of 3.71 µM. It also gave a TGI (DU-145 prostate) of over 100 µM, a GI50 (LOX IMVI melanoma) of 3.49 µM and a TGI (LOX IMVI melanoma) of 13.9 µM. For the same compound, the GI50 (KM12 colon) was 3.91 µM, the TGI (KM12 colon) was 26.2 µM and the GI50 (IGROV1 ovarian) was 4.53 µM. The TGI (IGROV1 ovarian) was 30.1 µM, the GI50 (OVCAR-4 ovarian) was 3.61 µM and the TGI (OVCAR-4 ovarian) was over 100 µM. For the same compound, the GI50 (OVCAR-3 ovarian) was 2990 nM, the TGI (OVCAR-3 ovarian) was 12.7 µM and the GI50 (HOP-62 NSCLC) was 3.9 µM. For the same compound, the TGI (HOP-62 NSCLC) was 22.4 µM, the GI50 (U251 CNS) was 3.08 µM and the TGI (U251 CNS) was 14.3 µM. For the same compound, the GI50 (HCT-15 colon) was 2210 nM, the TGI (HCT-15 colon) was 12.9 µM and the GI50 (HS 578T breast) was 2820 nM. It also gave a TGI (HS 578T breast) of 14.9 µM, a GI50 (OVCAR-8 ovarian) of 3.48 µM and a TGI (OVCAR-8 ovarian) of over 100 µM. It also gave a GI50 (MDA-MB-231 breast) of 4.01 µM, a TGI (MDA-MB-231 breast) of 21.9 µM and a GI50 (NCI-H460 lung) of 2510 nM. For the same compound, the TGI (NCI-H460 lung) was 9.77 µM, the GI50 (OVCAR-5 ovarian) was 4.08 µM and the TGI (OVCAR-5 ovarian) was 25 µM. It also gave a GI50 (HCT-116 colon) of 2650 nM, a TGI (HCT-116 colon) of 11.1 µM and a GI50 (UO-31 renal) of 2680 nM. The TGI (UO-31 renal) was 12.4 µM, the GI50 (A498 renal) was 3.28 µM and the TGI (A498 renal) was 12.6 µM. For the same compound, the GI50 (MDA-MB-435) was 3.95 µM, the TGI (MDA-MB-435) was 23.5 µM and the GI50 (MOLT-4 leukemia) was 2670 nM. For the same compound, the TGI (MOLT-4 leukemia) was 23.4 µM, the GI50 (SW-620 colon) was 3.43 µM and the TGI (SW-620 colon) was 30.9 µM. The GI50 (786-0 renal) was 3.61 µM, the TGI (786-0 renal) was 15.3 µM and the GI50 (CCRF-CEM leukemia) was 3.26 µM. The TGI (CCRF-CEM leukemia) was 35.4 µM, the GI50 (SK-MEL-28 melanoma) was 4.69 µM and the TGI (SK-MEL-28 melanoma) was 37.2 µM. The GI50 (PC-3 prostate) was 3.99 µM, the TGI (PC-3 prostate) was over 100 µM and the GI50 (HOP-92 NSCLC) was 4.72 µM. It also gave a TGI (HOP-92 NSCLC) of 37.1 µM, a GI50 (T-47D breast) of 3.46 µM and a TGI (T-47D breast) of over 100 µM. The GI50 (RXF 393 renal) was 4.37 µM, the TGI (RXF 393 renal) was 8.95 µM and the GI50 (UACC-62 melanoma) was 4.8 µM. The TGI (UACC-62 melanoma) was 24.8 µM, the GI50 (EKVX NSCLC) was 2680 nM and the TGI (EKVX NSCLC) was 36.5 µM. It also gave a GI50 (UACC-257 melanoma) of 4.12 µM, a TGI (UACC-257 melanoma) of 30.9 µM and a GI50 (MALME-3M melanoma) of 3.78 µM. It also gave a TGI (MALME-3M melanoma) of 19.3 µM, a GI50 (SF-539 CNS) of 3.59 µM and a TGI (SF-539 CNS) of 12.8 µM. The GI50 (NCI-H522 lung) was 3.45 µM, the TGI (NCI-H522 lung) was 78.4 µM and the GI50 (COLO 205 colon) was 1990 nM. It also gave a TGI (COLO 205 colon) of 4.89 µM, a GI50 (SR leukemia) of 4.15 µM and a TGI (SR leukemia) of over 100 µM. The GI50 (TK-10 renal) was 4.55 µM, the TGI (TK-10 renal) was over 100 µM and the GI50 (SNB-19 CNS) was 3.82 µM. The TGI (SNB-19 CNS) was over 100 µM, the GI50 (SF-268 CNS) was 3.45 µM and the TGI (SF-268 CNS) was over 100 µM. It also gave a GI50 (HCC-2998 colon) of 3.63 µM, a TGI (HCC-2998 colon) of 20.8 µM and a GI50 (NCI/ADR-RES ovarian) of 3.17 µM. The TGI (NCI/ADR-RES ovarian) was over 100 µM, the GI50 (NCI-H23 lung) was 3.72 µM and the TGI (NCI-H23 lung) was 43.7 µM. For the same compound, the GI50 (M14 melanoma) was 3.88 µM, the TGI (M14 melanoma) was 17.7 µM and the GI50 (CAKI-1 renal) was 3.16 µM. It also gave a TGI (CAKI-1 renal) of over 100 µM, a GI50 (SN12C renal) of 3.14 µM and a TGI (SN12C renal) of 17.6 µM. It also gave a GI50 (HL-60(TB) leukemia) of 2570 nM, a TGI (HL-60(TB) leukemia) of 9.75 µM and a GI50 (BT-549 breast) of 3.11 µM. For the same compound, the TGI (BT-549 breast) was 13.1 µM, the GI50 (ACHN renal) was 2530 nM and the TGI (ACHN renal) was 18.7 µM. The GI50 (MDA-MB-468 breast) was 2830 nM, the TGI (MDA-MB-468 breast) was 20.7 µM and the GI50 (A549 NSCLC) was 2110 nM. The TGI (A549 NSCLC) was 50.1 µM, the GI50 (SF-295 CNS) was 2790 nM and the TGI (SF-295 CNS) was 18.8 µM. It also gave a GI50 (MCF7 breast) of 3.29 µM, a TGI (MCF7 breast) of over 100 µM and a GI50 (NCI-H226 lung) of 3.52 µM. It also gave a TGI (NCI-H226 lung) of 34.9 µM, a GI50 (RPMI-8226 leukemia) of 2660 nM and a TGI (RPMI-8226 leukemia) of 71.8 µM. It also gave a GI50 (HT29 colon) of 3.42 µM, a TGI (HT29 colon) of 16.7 µM and a GI50 (SK-MEL-2 melanoma) of 4.03 µM. It also gave a TGI (SK-MEL-2 melanoma) of 20.7 µM, a GI50 (K-562 leukemia) of 2680 nM and a TGI (K-562 leukemia) of over 100 µM. For the same compound, the GI50 (SNB-75 CNS) was 2440 nM, the TGI (SNB-75 CNS) was over 100 µM and the GI50 (SK-OV-3 ovarian) was 3.8 µM. It also gave a TGI (SK-OV-3 ovarian) of 44.1 µM.
